Measured values from patent US9102678B2, “Compounds and methods for inhibiting mitotic progression” (Millennium Pharmaceuticals, Inc., priority 2004, dated 2015).

target: T1, recombinant murine Aurora A enzyme (Mus musculus, UniProt P97477); experiment: Aurora A DELFIA Kinase Assay; assay type: biochemical; conditions: not given
T1 construct: hexahistidine (His6) (N); made in house; host or cells: insect cells, baculovirus (Bac-to-Bac, Invitrogen)
T1 sequence (P97477 whole entry): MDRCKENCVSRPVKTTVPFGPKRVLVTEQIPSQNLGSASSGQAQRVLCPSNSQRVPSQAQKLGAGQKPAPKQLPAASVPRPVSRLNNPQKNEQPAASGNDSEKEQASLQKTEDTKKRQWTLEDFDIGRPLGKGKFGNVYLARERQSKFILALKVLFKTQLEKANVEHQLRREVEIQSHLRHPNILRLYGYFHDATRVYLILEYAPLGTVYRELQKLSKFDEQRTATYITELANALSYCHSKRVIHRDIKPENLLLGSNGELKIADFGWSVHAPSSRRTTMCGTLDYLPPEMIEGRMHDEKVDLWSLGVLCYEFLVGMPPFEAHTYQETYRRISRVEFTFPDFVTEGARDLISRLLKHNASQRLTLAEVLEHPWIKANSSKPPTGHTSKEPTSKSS

Compound	IC50 [nM]
CC1N=C(c2c(F)cccc2F)c2cc(Cl)ccc2-c2nc(Nc3ccc(C(=O)O)cc3)ncc21 (stereo not drawn) [Compound I-371, 4-{[9-chloro-7-(2,6-difluorophenyl)-5-methyl-5H-pyrimido[5,4-d][2]benzazepin-2-yl]amino}benzoic acid]	≤ 100

same assay, conditions: mouse Aurora A, 250 μM ATP; threshold less than or equal to 100 nM; read-out: IC50

Compound	IC50 [nM]
C[C@@H]1CN(C(=O)c2ccc(Nc3ncc4c(n3)-c3ccc(Cl)cc3C(c3c(F)cccc3F)=NC4)cc2)CCN1 [Compound I-194, {4-[9-Chloro-7-(2,6-difluoro-phenyl)-5H-benzo[c]pyrimido[4,5-e]azepin-2-ylamino]-phenyl}-(3(R)-methyl-piperazin-1-yl)-methanone]	≤ 100
O=C(O)c1ccc(Nc2ncc3c(n2)-c2ccc(C(=O)O)cc2C(c2ccccc2F)=NC3)cc1 [Compound I-249, 2-[(4-carboxyphenyl)amino]-7-(2-fluorophenyl)-5H-pyrimido[5,4-d][2]benzazepine-9-carboxylic acid]	≤ 100
CN(CCCN)C(=O)c1ccc(Nc2ncc3c(n2)-c2ccc(Cl)cc2C(c2ccccc2F)=NC3)cc1 [Compound I-117, N-(3-Amino-propyl)-4-[9-chloro-7-(2-fluoro-phenyl)-5H-benzo[c]pyrimido[4,5-e]azepin-2-ylamino]-N-methyl-benzamide]	≤ 100
CN(C)CCNC(=O)c1ccc(Nc2ncc3c(n2)-c2ccc(Cl)cc2C(c2ccccc2F)=NC3)cc1 [Compound I-4, 4-[9-Chloro-7-(2-fluoro-phenyl)-5H-benzo[c]pyrimido[4,5-e]azepin-2-ylamino]-N-(2-dimethylamino-ethyl)-benzamide]	≤ 100
CNC1CCN(C(=O)c2ccc(Nc3ncc4c(n3)-c3ccc(Cl)cc3C(c3c(F)cccc3F)=NC4)cc2)CC1 [Compound I-220, 9-chloro-7-(2,6-difluorophenyl)-N-(4-{[4-(methylamino)piperidin-1-yl]carbonyl}phenyl)-5H-pyrimido[5,4-d][2]benzazepin-2-amine]	≤ 100
CC1CN(C(=N)NC(=O)c2ccc(Nc3ncc4c(n3)-c3ccc(Cl)cc3C(c3c(F)cccc3F)=NC4)cc2)CC(C)N1 (stereo not drawn) [Compound I-238, 4-{[9-chloro-7-(2,6-difluorophenyl)-5H-pyrimido[5,4-d][2]benzazepin-2-yl]amino}-N-[(3,5-dimethylpiperazin-1-yl)(imino)methyl]benzamide]	≤ 100
CN1CCCC(CN2CCN(C(=O)c3ccc(Nc4ncc5c(n4)-c4ccc(Cl)cc4C(c4ccccc4F)=NC5)cc3)CC2)C1 (stereo not drawn) [Compound I-211, 9-chloro-7-(2-fluorophenyl)-N-[4-({4-[(1-methylpiperidin-3-yl)methyl]piperazin-1-yl}carbonyl)phenyl]-5H-pyrimido[5,4-d][2]benzazepin-2-amine]	≤ 100
O=C(O)c1ccc(Nc2ncc3c(n2)-c2ccc(Cl)cc2C(c2ccccc2F)=NC3)cc1 [Compound I-52, 4-[9-Chloro-7-(2-fluoro-phenyl)-5H-benzo[c]pyrimido[4,5-e]azepin-2-ylamino]-benzoic acid]	≤ 100
CNC1CCCN(C(=O)c2ccc(Nc3ncc4c(n3)-c3ccc(Cl)cc3C(c3ccccc3OC)=NC4)cc2)C1 (stereo not drawn) [Compound I-333, 9-chloro-7-(2-methoxyphenyl)-N-(4-{[3-(methylamino)piperidin-1-yl]carbonyl}phenyl)-5H-pyrimido[5,4-d][2]benzazepin-2-amine]	≤ 100
CN(C)CCN(C)C(=O)c1ccc(Nc2ncc3c(n2)-c2ccc(Cl)cc2C(c2c(F)cccc2F)=NC3)cc1 [Compound I-247, 4-{[9-chloro-7-(2,6-difluorophenyl)-5H-pyrimido[5,4-d][2]benzazepin-2-yl]amino}-N-[2-(dimethylamino)ethyl]-N-methylbenzamide]	≤ 100
CNCCCN(C)C(=O)c1ccc(Nc2ncc3c(n2)-c2ccc(Cl)cc2C(c2c(F)cccc2OC)=NC3)cc1 [Compound I-261, 4-{[9-chloro-7-(2-fluoro-6-methoxyphenyl)-5H-pyrimido[5,4-d][2]benzazepin-2-yl]amino}-N-methyl-N-[3-(methylamino)propyl]benzamide]	≤ 100
O=C(NCCN1CCOCC1)c1ccc(Nc2ncc3c(n2)-c2ccc(Cl)cc2C(c2ccccc2F)=NC3)cc1 [Compound I-29, 4-[9-Chloro-7-(2-fluoro-phenyl)-5H-benzo[c]pyrimido[4,5-e]azepin-2-ylamino]-N-(2-morpholin-4-yl-ethyl)-benzamide]	≤ 100
CC1CN(C(=O)c2ccc(Nc3ncc4c(n3)-c3ccc(Cl)cc3C(c3c(F)cccc3Cl)=NC4)cc2)CCN1 (stereo not drawn) [Compound I-323, 9-chloro-7-(2-chloro-6-fluorophenyl)-N-{4-[(3-methylpiperazin-1-yl)carbonyl]phenyl}-5H-pyrimido[5,4-d][2]benzazepin-2-amine]	≤ 100
CC1CN(C(=O)c2ccc(Nc3ncc4c(n3)-c3ccc(Cl)cc3C(c3ccc(F)cc3F)=NC4)cc2)CC(C)N1 (stereo not drawn) [Compound I-321, 9-chloro-7-(2,4-difluorophenyl)-N-{4-[(3,5-dimethylpiperazin-1-yl)carbonyl]phenyl}-5H-pyrimido[5,4-d][2]benzazepin-2-amine]	≤ 100
O=C(O)Cc1cccc(Nc2ncc3c(n2)-c2ccc(Cl)cc2C(c2ccccc2Cl)=NC3)c1 [Compound I-65, {3-[9-Chloro-7-(2-chloro-phenyl)-5H-benzo[c]pyrimido[4,5-e]azepin-2-ylamino]-phenyl}-acetic acid]	≤ 100
O=C(c1ccc(Nc2ncc3c(n2)-c2ccc(Cl)cc2C(c2ccccc2F)=NC3)cc1)N1CCOCC1 [Compound I-26, {4-[9-Chloro-7-(2-fluoro-phenyl)-5H-benzo[c]pyrimido[4,5-e]azepin-2-ylamino]-phenyl}-morpholin-4-yl-methanone]	≤ 100
CC1CN(C(=O)c2ccc(Nc3ncc4c(n3)-c3ccc(Cl)cc3C(c3ccccc3F)=NC4)cc2Cl)CCN1 (stereo not drawn) [Compound I-214, 9-chloro-N-{3-chloro-4-[(3-methylpiperazin-1-yl)carbonyl]phenyl}-7-(2-fluorophenyl)-5H-pyrimido[5,4-d][2]benzazepin-2-amine]	≤ 100
CNCCN(C)C(=O)c1ccc(Nc2ncc3c(n2)-c2ccc(Cl)cc2C(c2c(F)cccc2OC)=NC3)cc1 [Compound I-254, 4-{[9-chloro-7-(2-fluoro-6-methoxyphenyl)-5H-pyrimido[5,4-d][2]benzazepin-2-yl]amino}-N-methyl-N-[2-(methylamino)ethyl]benzamide]	≤ 100
Cc1ccccc1C1=NCc2cnc(Nc3ccc(C(=O)NCCCN4CCN(C)CC4)cc3)nc2-c2ccc(Cl)cc21 [Compound I-21, 4-(9-Chloro-7-o-tolyl-5H-benzo[c]pyrimido[4,5-e]azepin-2-ylamino)-N-[3-(4-methyl-piperazin-1-yl)-propyl]-benzamide]	≤ 100
NC1CN(C(=O)c2ccc(Nc3ncc4c(n3)-c3ccc(Cl)cc3C(c3ccccc3F)=NC4)cc2)C1 [Compound I-192, (3-Amino-azetidin-1-yl)-{4-[9-chloro-7-(2-fluoro-phenyl)-5H-benzo[c]pyrimido[4,5-e]azepin-2-ylamino]-phenyl}-methanone]	≤ 100
O=C(Nc1ccc(Nc2ncc3c(n2)-c2ccc(Cl)cc2C(c2c(F)cccc2F)=NC3)cc1)C1CCNCC1 [Compound I-319, N-(4-{[9-chloro-7-(2,6-difluorophenyl)-5H-pyrimido[5,4-d][2]benzazepin-2-yl]amino}phenyl)piperidine-4-carboxamide]	≤ 100
O=C(O)c1ccc(Nc2ncc3c(n2)-c2ccc(Cl)cc2C(c2ccccc2C(F)(F)F)=NC3)cc1 [Compound I-277, 4-({9-chloro-7-[2-(trifluoromethyl)phenyl]-5H-pyrimido[5,4-d][2]benzazepin-2-yl}amino)benzoic acid]	≤ 100
C[C@@H]1CN(C(=O)c2csc(Nc3ncc4c(n3)-c3ccc(Cl)cc3C(c3c(F)cccc3F)=NC4)n2)CCN1 [Compound I-365, 9-chloro-7-(2,6-difluorophenyl)-N-(4-{[(3R)-3-methylpiperazin-1-yl]carbony}-1,3-thiazol-2-yl)-5H-pyrimido[5,4-d][2]benzazepin-2-amine]	≤ 100
CNC(=O)c1csc(Nc2ncc3c(n2)-c2ccc(Cl)cc2C(c2c(F)cccc2F)=NC3)n1 [Compound I-355, 2-{[9-chloro-7-(2,6-difluorophenyl)-5H-pyrimido[5,4-d][2]benzazepin-2-yl]amino}-N-methyl-1,3-thiazole-4-carboxamide]	≤ 100
CNCCN(C)C(=O)c1cc(Nc2ncc3c(n2)-c2ccc(Cl)cc2C(c2c(F)cccc2F)=NC3)ccc1Cl [Compound I-283, 2-chloro-5-{[9-chloro-7-(2,6-difluorophenyl)-5H-pyrimido[5,4-d][2]benzazepin-2-yl]amino}-N-methyl-N-[2-(methylamino)ethyl]benzamide]	≤ 100
CNC1CCN(C(=O)c2cc(Nc3ncc4c(n3)-c3ccc(Cl)cc3C(c3c(F)cccc3F)=NC4)ccc2Cl)C1 (stereo not drawn) [Compound I-281, 9-chloro-N-(4-chloro-3-{[3-(methylamino)pyrrolidin-1-yl]carbonyl}phenyl)-7-(2,6-difluorophenyl)-5H-pyrimido[5,4-d][2]benzazepin-2-amine]	≤ 100
CNC1CN(C(=O)c2ccc(Nc3ncc4c(n3)-c3ccc(Cl)cc3C(c3c(F)cccc3Cl)=NC4)cc2)C1 [Compound I-351, 9-chloro-7-(2-chloro-6-fluorophenyl)-N-(4-{[3-(methylamino)azetidin-1-yl]carbonyl}phenyl)-5H-pyrimido[5,4-d][2]benzazepin-2-amine]	≤ 100
CC1CN(C(=O)c2cccc(Nc3ncc4c(n3)-c3ccc(Cl)cc3C(c3c(F)cccc3F)=NC4)c2)CC(C)N1 (stereo not drawn) [Compound I-222, 9-chloro-7-(2,6-difluorophenyl)-N-{3-[(3,5-dimethylpiperazin-1-yl)carbonyl]phenyl}-5H-pyrimido[5,4-d][2]benzazepin-2-amine]	≤ 100
CN(C)C1CCN(C(=O)c2cc(Nc3ncc4c(n3)-c3ccc(Cl)cc3C(c3c(F)cccc3F)=NC4)ccc2Cl)CC1 [Compound I-269, 9-chloro-N-(4-chloro-3-{[4-(dimethylamino)piperidin-1-yl]carbonyl}phenyl)-7-(2,6-difluorophenyl)-5H-pyrimido[5,4-d][2]benzazepin-2-amine]	≤ 100
